In US11034692B1 (Genentech, Inc., priority 2017, dated 2021):

biological target: HPK1-FL (HPK full length, T165E S171E) (Homo sapiens (Human), UniProt Q92918, S171E/T165E); test: HPK1-FL HTRF Enzymatic Assay ("HTRF"); assay type: biochemical; settings: ATP 1 mM, Table B1-2, read-out: HPK1 Ki, H = HTRF
Procedure: HPK1-FL HTRF Enzymatic Assay (“HTRF”)
HPK-FL enzyme phosphorylates Biotin-SLP-76 substrate in the presence of ATP at 1 mM and varying concentrations of test compound. Product is detected by FRET using Eu-anti-pSLP76 Ab and SA-XL665. See www.cisbio.com/HTRF for additional HTRF technology information.
Instrumentation: • Echo555 compound dispenser • Agilent Bravo • Perkin Elmer Envision
Materials: • Assay plate: White ProxiPlate 384 F (PerkinElmer cat #6008289) • Kinase: HPK full length double mutant • Substrate: Biotin-SLP76 • ATP: 100 mM ATP • BSG: 2% BSG • DMSO: DMSO (Sigma cat #34869-100ML) • Reaction Buffer: H2O/50 mM HEPES, pH 7.5/10 mM MgCl2/2 mM TCEP/0.01% Brij-35/0.01% BSG • Detection mix: Eu-anti-pSLP76/SA-XL665 (Cisbio, #610SAXAC)
Assay Procedure Ki Determination:
To a 384 well Proxiplate with 80 nL compound or DMSO spotted on was added 4 μl/well kinase mix. The mixture was preincubated for 30 minutes and then 4 μl/well substrate mix was added. The solution was incubated for 60 min and then 4 μl/well detection mix was added. The solution was incubated for another 60 min. The plates were then loaded onto a Perkin Elmer Envision and the TR-FRET signal was measured at 615 and 665 nm. A ratio of […] was used to calculate the % activity at each concentration of compound.

HPK1-FL (HPK full length, T165E S171E), sequence (Q92918 whole entry T165E/S171E): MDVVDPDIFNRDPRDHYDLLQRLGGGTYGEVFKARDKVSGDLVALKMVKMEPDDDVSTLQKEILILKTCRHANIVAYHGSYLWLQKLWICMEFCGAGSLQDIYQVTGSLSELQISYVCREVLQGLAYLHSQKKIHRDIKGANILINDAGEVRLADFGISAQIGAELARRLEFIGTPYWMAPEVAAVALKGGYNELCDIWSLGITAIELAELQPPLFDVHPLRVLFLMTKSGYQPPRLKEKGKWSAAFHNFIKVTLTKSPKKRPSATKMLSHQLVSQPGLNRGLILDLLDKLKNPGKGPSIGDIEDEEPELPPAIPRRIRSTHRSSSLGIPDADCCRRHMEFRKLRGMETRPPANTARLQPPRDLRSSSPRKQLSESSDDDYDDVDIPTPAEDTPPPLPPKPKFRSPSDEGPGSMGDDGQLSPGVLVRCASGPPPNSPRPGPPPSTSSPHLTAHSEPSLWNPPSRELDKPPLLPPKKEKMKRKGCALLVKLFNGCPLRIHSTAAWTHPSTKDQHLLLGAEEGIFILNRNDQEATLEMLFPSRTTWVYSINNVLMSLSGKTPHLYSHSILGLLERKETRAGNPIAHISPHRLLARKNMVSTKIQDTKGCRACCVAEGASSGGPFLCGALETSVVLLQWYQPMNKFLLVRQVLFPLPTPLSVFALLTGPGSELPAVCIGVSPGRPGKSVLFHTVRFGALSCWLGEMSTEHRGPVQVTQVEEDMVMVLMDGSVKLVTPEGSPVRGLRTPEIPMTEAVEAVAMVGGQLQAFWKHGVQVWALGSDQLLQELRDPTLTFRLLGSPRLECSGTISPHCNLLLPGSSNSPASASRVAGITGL

Point of comparison: `Cc1c(N)cncc1-c1cc2cc(Nc3cc4n(n3)CC(=O)N(C)CC4)ncc2c(N)n1` [Compound 415, 2-((8-amino-6-(5-amino-4-methylpyridin-3-yl)-2,7-naphthyridin-3-yl)amino)-6-methyl-5,6-dihydro-4H-pyrazolo[1,5-d][1,4]diazepin-7(8H)-one], Ki 0.21 nM. Against it:
- CC(Oc1ccccn1)c1cc2cc(Nc3cc4n(n3)CC(=O)N(C(C)C)CC4)ncc2c(N)n1 (racemic) [Compound 419, (+/−)-2-((8-amino-6-(1-(pyridin-2-yloxy)ethyl)-2,7-naphthyridin-3-yl)amino)-6-isopropyl-5,6-dihydro-4H-pyrazolo[1,5-d][1,4]diazepin-7(8H)-one] — 2400-fold higher, 511 nM
- CC(C)N1CCc2cc(Nc3cc4cc(C(C)n5ccccc5=O)nc(N)c4cn3)nn2CC1=O (racemic) [Compound 420, (+/−)-2-((8-amino-6-(1-(2-oxopyridin-1(2H)-yl)ethyl)-2,7-naphthyridin-3-yl)amino)-6-isopropyl-5,6-dihydro-4H-pyrazolo[1,5-d][1,4]diazepin-7(8H)-one] — 7800-fold higher, 1640 nM
- Cc1cc(-c2ncco2)cc(F)c1-c1cc2cc(NC(=O)[C@H]3[C@H](C)[C@@H]3c3cnn(C)c3)ncc2c(N)n1 (single isomer, unassigned) [Compound 349, N-(8-amino-6-(2-fluoro-6-methyl-4-(oxazol-2-yl)phenyl)-2,7-naphthyridin-3-yl)-2-methyl-3-(1-methyl-1H-pyrazol-4-yl)cyclopropane-1-carboxamide] — 30-fold higher, 6.2 nM
- Cc1cc(-c2ncco2)cc(F)c1-c1cc2cc(NC(=O)[C@H]3[C@@H](C)[C@@H]3c3cnn(C)c3)ncc2c(N)n1 (single isomer, unassigned) [Compound 350] — 190-fold higher, 39.7 nM
- Cc1cc(C(N)=O)cc(F)c1-c1cc2cc(NC(=O)[C@H]3C[C@@H]3c3cnn(C)c3)ncc2c(N)n1 (single isomer, unassigned) [Compound 351] — 1.6-fold higher, 0.33 nM
- Cc1cc(C(N)=O)cc(F)c1-c1cc2cc(NC(=O)[C@@H]3C[C@H]3c3cnn(C)c3)ncc2c(N)n1 (single isomer, unassigned) [Compound 352] — 24-fold higher, 5 nM
- Cc1c(N)cncc1-c1cc2cc(Nc3cc4n(n3)CC(=O)N(C)CC43CC3)ncc2c(N)n1 [Compound 414, 2′-((8-amino-6-(5-amino-4-methylpyridin-3-yl)-2,7-naphthyridin-3-yl)amino)-6′-methyl-5′,6′-dihydrospiro[cyclopropane-1,4′-pyrazolo[1,5-d][1,4]diazepin]-7′(8′H)-one] — 16-fold lower, 0.013 nM

biological target: HPK1 (Homo sapiens, UniProt Q92918); test: HPK1 Lantha Binding Assay ("Lanth"); settings: Table B1-1, read-out: HPK1 Ki (μM) (Lanth)
Method in brief: (§1)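 TR-FRET tracer displacement with 2 nM GST-tagged kinase, 2 nM Eu-anti-GST antibody and 15 nM Tracer222 at 23 C. Enzyme–antibody preincubated 1 h with compound, then tracer added for 1 h; 340 nm excitation, 615/665 nm emission. Ki from Morrison fit over an 11-point 5-fold dilution.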

HPK1 (Homo sapiens, UniProt Q92918), sequence (Q92918 whole entry, looked up): as the sequence (Q92918 whole entry T165E/S171E) above, with E165T, E171S counted along it

Point of comparison: `Cc1ccc(O)cc1-c1cc2cc(NC(=O)[C@H]3C[C@@H]3c3cnn(C)c3)ncc2c(N)n1` (racemic) [Compound 268, (+/−)-trans-N-[8-amino-6-(5-hydroxy-2-methylphenyl)-2,7-naphthyridin-3-yl]-2-(1-methyl-1H-pyrazol-4-yl)cyclopropane-1-carboxamide], Ki 0.000147 µM. Against it:
- Cc1cc(C(=O)O)ncc1-c1cc2cc(NC(=O)[C@H]3C[C@@H]3c3cnn(C)c3)ncc2c(N)n1 (racemic) [Compound 342, (±)-trans-5-(1-amino-6-((1S,2S)-2-(1-methyl-1H-pyrazol-4-yl)cyclopropane-1-carboxamido)-2,7-naphthyridin-3-yl)-4-methylpicolinic acid] — 9.7-fold higher, 0.00143 µM
- CNC(=O)c1cc(C)c(-c2cc3cc(NC(=O)[C@H]4C[C@@H]4c4cnn(C)c4)ncc3c(N)n2)cn1 (racemic) [Compound 346, (±)-5-(1-amino-6-((trans)-2-(1-methyl-1H-pyrazol-4-yl)cyclopropane-1-carboxamido)-2,7-naphthyridin-3-yl)-N,4-dimethylpicolinamide] — 17-fold higher, 0.00244 µM
- Cc1ccncc1-c1cc2cc(NC(=O)[C@@H]3C[C@H]3F)ncc2c(N)n1 (single isomer, unassigned) [Compound 107, (trans)-N-(8-amino-6-(4-methylpyridin-3-yl)-2,7-naphthyridin-3-yl)-2-fluorocyclopropane-1-carboxamide] — 4.4-fold higher, 0.000654 µM
- Cn1cc([C@H]2C[C@@H]2C(=O)Nc2cc3c(Cl)c(-c4cnccc4CCO)nc(N)c3cn2)cn1 (single isomer, unassigned) [Compound 332] — 38-fold higher, 0.00562 µM
- Nc1nc(-c2ccc[nH]c2=O)cc2cc(NC(=O)C3CC3)ncc12 [Compound 42, N-(8-amino-6-(2-oxo-1,2-dihydropyridin-3-yl)-2,7-naphthyridin-3-yl) cyclopropanecarboxamide] — 39000-fold higher, 5.8 µM
- Cc1ccncc1-c1cc2cc(NC(=O)NC(C)CO)ncc2c(N)n1 (stereo not drawn) [Compound 117, l-(8-amino-6-(4-methylpyridin-3-yl)-2,7-naphthyridin-3-yl)-3-(1-hydroxypropan-2-yl)urea] — 58-fold higher, 0.00847 µM
- Cc1ccncc1-c1cc2cc(NC(=O)C3CC34CN(c3ncccc3C#N)C4)ncc2c(N)n1 (stereo not shown) [Compound 150, N-(8-amino-6-(4-methylpyridin-3-yl)-2,7-naphthyridin-3-yl)-5-(3-cyanopyridin-2-yl)-5-azaspiro[2.3]hexane-1-carboxamide] — 5.2-fold higher, 0.00077 µM
- CNC(=O)Cn1cc(Nc2cc3cc(-c4cnccc4C)nc(N)c3cn2)cn1 [Compound 184, 2-[4-[[8-amino-6-(4-methyl-3-pyridyl)-2,7-naphthyridin-3-yl]amino]pyrazol-1-yl]-N-methyl-acetamide] — 17-fold higher, 0.0025 µM
- Cc1ccncc1-c1cc2cc(NC(=O)[C@H]3[C@@H]4CCC(C#N)[C@@H]43)ncc2c(N)n1 (stereo partly drawn) [Compound 230, (1R,5R,6S)—N-(8-amino-6-(4-methylpyridin-3-yl)-2,7-naphthyridin-3-yl)-2-cyanobicyclo[3.1.0]hexane-6-carboxamide] — 2-fold higher, 0.000295 µM
- Cc1ccncc1-c1cc2cc(Nc3cc(C)n(CCO)n3)ncc2c(N)n1 [Compound 262, 2-(3-[[8-amino-6-(4-methylpyridin-3-yl)-2,7-naphthyridin-3-yl]amino]-5-methyl-1H-pyrazol-1-yl)ethan-1-ol] — 3-fold higher, 0.000439 µM

same assay, conditions: Table B1-2, read-out: HPK1 Ki, L = Lanth

Point of comparison: `Cc1cccc(Cl)c1-c1cc2cc(NC(=O)[C@H]3C[C@@H]3CC#N)ncc2c(N)n1` (single isomer, unassigned) [Compound 362], Ki 0.00022 µM. Against it:
- Cc1cccc(CC#N)c1-c1cc2cc(NC(=O)[C@H]3C[C@@H]3c3cnn(C)c3)ncc2c(N)n1 (racemic) [Compound 382, (+/−)-trans-N-(8-amino-6-(2-(cyanomethyl)-6-methylphenyl)-2,7-naphthyridin-3-yl)-2-(1-methyl-1H-pyrazol-4-yl)cyclopropane-1-carboxamide] — 64-fold higher, 0.014 µM
- Cc1ccnc(Cc2ccccc2)c1-c1cc2cc(NC(=O)[C@H]3C[C@@H]3c3cnn(C)c3)ncc2c(N)n1 (racemic) [Compound 427, (+/−)-trans-N-(8-amino-6-(2-benzyl-4-methylpyridin-3-yl)-2,7-naphthyridin-3-yl)-2-(1-methyl-1H-pyrazol-4-yl)cyclopropane-1-carboxamide] — 3.5-fold higher, 0.00078 µM
- Cc1ccc2c(c1-c1cc3cc(NC(=O)[C@H]4C[C@@H]4CC#N)ncc3c(N)n1)CC[C@@]2(C)O (single isomer, unassigned) [Compound 353] — 130-fold higher, 0.029 µM
- Cc1cccc(CC#N)c1-c1cc2cc(NC(=O)[C@@H]3C[C@H]3c3cnn(C)c3)ncc2c(N)n1 (single isomer, unassigned) [Compound 381] — 37-fold higher, 0.0081 µM
- Cc1ccnc(Cc2ccccc2)c1-c1cc2cc(NC(=O)[C@@H]3C[C@H]3c3cnn(C)c3)ncc2c(N)n1 (single isomer, unassigned) [Compound 397] — within 1.5-fold, 0.00025 µM
- Cc1cc(-n2cccn2)ncc1-c1cc2cc(NC(=O)[C@H]3C[C@@H]3c3cnn(C)c3)ncc2c(N)n1 (single isomer, unassigned) [Compound 398] — 140-fold higher, 0.03 µM
- Cc1cc(N2CCC2=O)ncc1-c1cc2cc(NC(=O)[C@H]3C[C@@H]3c3cnn(C)c3)ncc2c(N)n1 (single isomer, unassigned) [Compound 400] — 5.5-fold higher, 0.0012 µM
- COC(=O)c1cc(C)c(-c2cc3cc(NC(=O)[C@H]4C[C@@H]4c4cnn(C)c4)ncc3c(N)n2)cn1 (single isomer, unassigned) [Compound 402] — within 1.5-fold, 0.00026 µM
- Cc1cc(-c2ccn(C)n2)ncc1-c1cc2cc(NC(=O)[C@H]3C[C@@H]3c3cnn(C)c3)ncc2c(N)n1 (single isomer, unassigned) [Compound 404] — 8.6-fold higher, 0.0019 µM
- Cc1ccncc1-c1cc2cc(NC(=O)C3CC34CC4)ncc2c(N)n1 (stereo not shown) [Compound 413, N-(8-amino-6-(4-methylpyridin-3-yl)-2,7-naphthyridin-3-yl)spiro[2.2]pentane-1-carboxamide] — 68-fold higher, 0.015 µM

biological target: HPK1; test: HPK1 Lantha Binding Assay ("Lanth"); settings: Table B1-1, read-out: HPK1 Ki (μM) (Lanth)
Method in brief: as §1

`Nc1nc(-c2ccc[nH]c2=O)cc2cc(NC(=O)C3CC3)ncc12` [Compound 42, N-(8-amino-6-(2-oxo-1,2-dihydropyridin-3-yl)-2,7-naphthyridin-3-yl) cyclopropanecarboxamide] showed a Ki of 0.0405 µM.
